Reference: paper PMC6270666, “Flavonoids with M1 Muscarinic Acetylcholine Receptor Binding Activity” (Molecules, 2014)
Like-named read-outs stand apart in the source and are kept apart here.

Columns and labels:
cloned human M1 mAChRs = biological target: T1, cloned human M1 mAChRs (Homo sapiens, UniProt P11229); experiment: M1 mAChR radioligand binding assay ([3H]N-methylscopolamine displacement)
T1 construct: purchased Perkin Elmer; host or cells: stably transfected CHO-K1 cell lines (membrane preparation)
T1 sequence (P11229 1-460): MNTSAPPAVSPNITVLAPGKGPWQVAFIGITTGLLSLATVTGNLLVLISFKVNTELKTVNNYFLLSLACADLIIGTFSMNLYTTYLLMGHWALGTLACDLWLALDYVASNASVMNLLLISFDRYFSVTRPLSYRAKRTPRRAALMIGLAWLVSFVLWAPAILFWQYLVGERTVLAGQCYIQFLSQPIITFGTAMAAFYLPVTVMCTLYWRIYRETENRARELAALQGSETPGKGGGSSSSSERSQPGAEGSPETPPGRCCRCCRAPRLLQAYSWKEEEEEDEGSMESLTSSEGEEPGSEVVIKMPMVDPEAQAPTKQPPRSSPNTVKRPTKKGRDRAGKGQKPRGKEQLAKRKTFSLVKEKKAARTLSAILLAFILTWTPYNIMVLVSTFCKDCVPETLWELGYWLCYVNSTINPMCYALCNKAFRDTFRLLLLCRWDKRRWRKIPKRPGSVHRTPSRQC

[1] = tested on: SH-SY5Y neuroblastoma cells; conditions: cited from earlier work
[2] = tested on: streptozotocin-induced diabetic rats; set-up: method as in PMID 23415807; conditions: cited from earlier work
[3] = tested on: amyloid β25-35 peptide-induced toxicity in mice; conditions: cited from earlier work
cholinesterase = tested on: cholinesterase; set-up: method as in PMID 20030514; conditions: cited from earlier work
DYRK1A = tested on: DYRK1A; set-up: method as in PMID 22673832; conditions: cited from earlier work
CLK1 = tested on: CLK1; set-up: method as in PMID 22673832; conditions: cited from earlier work
[4] = displacement of [3H]N-methylscopolamine 0.2 nM, M1 mAChR membranes from CHO-K1 cells, 27 °C, 120 min, mean ± SEM (n = 2), read-out: IC50
[5] = Cheng-Prusoff from IC50, [3H]N-methylscopolamine 0.2 nM, M1 mAChR membranes from CHO-K1 cells, mean ± SEM (n = 2), read-out: Ki

| IC50 (cloned human M1 mAChRs; [4]) [µM] | SMILES | IC50 (cloned human M1 mAChRs) [µM] | further results |
| --- | --- | --- | --- |
| > 10000 | COc1cc(OC)c2c(=O)cc(-c3cc(OC)c(OC)c(OC)c3)oc2c1 [Compound 2, 3',4',5',5,7-Pentamethoxyflavone] | – | melting point: 195 °C |
| > 10000 | COc1ccc(-c2cc(=O)c3c(OC)c(OC)c(OC)cc3o2)cc1OC [Compound 3, 3',4',5,6,7-Pentamethoxyflavone] | – | – |
| 257 ± 27 | COc1cc(-c2cc(=O)c3c(OC)c(OC)c(OC)cc3o2)cc(OC)c1OC [Compound 4, 3',4',5',5,6,7-Hexamethoxyflavone] | – | Ki (cloned human M1 mAChRs; [5]): 107 ± 11 µM |
| 101 ± 6 | COc1cc(O)c2c(=O)c(O)c(-c3ccc(OC)c(O)c3)oc2c1 [Compound 9, 3ʹ,3,5-Trihydroxy-4ʹ,7-dimethoxyflavone] | – | Ki (cloned human M1 mAChRs; [5]): 42 ± 3 µM; inhibition of DYRK1A kinase (DYRK1A): potent inhibitor; inhibition of CLK1 kinase (CLK1): potent inhibitor |
| > 10000 | COc1ccc(-c2oc3cc(OC)c(OC)cc3c(=O)c2O)cc1OC [Compound 10, 3-Hydroxy-3ʹ,4ʹ,6,7-tetramethoxyflavone] | – | melting point: 225 to 226 °C |

Continued, compound first:

| SMILES | IC50 (cloned human M1 mAChRs; [4]) [µM] | IC50 (cloned human M1 mAChRs) [µM] | further results |
| --- | --- | --- | --- |
| COc1cc(OC)c2c(=O)cc(-c3ccc(OC)c(OC)c3)oc2c1 [Compound 1, 3',4',5,7-Tetramethoxyflavone] | – | > 10000 | – |
| O=c1cc(-c2ccc(O)cc2)oc2cc(O)cc(O)c12 [Compound 5, Apigenin] | – | > 10000 | – |
| O=c1cc(-c2ccc(O)c(O)c2)oc2cc(O)cc(O)c12 [Compound 6, Luteolin] | – | 226 ± 14 | effect on hydrogen peroxide-induced apoptosis [1]: protective effects; Ki (cloned human M1 mAChRs): 94 ± 6 µM; effect on cognitive decline [2]: attenuation of cognitive decline; effect against amyloid β25-35 peptide-induced toxicity [3]: anti-amnesic effects; cholinesterase inhibitory activity (cholinesterase): cholinesterase inhibitory activity |
| O=c1c(O)c(-c2ccc(O)c(O)c2)oc2cc(O)ccc12 [Compound 8, Fisetin] | > 10000 | – | – |
| O=c1c(O)c(-c2ccc(O)cc2)oc2cc(O)cc(O)c12 [Compound 11, Kaempferol] | > 10000 | – | – |
| O=c1c(O)c(-c2ccc(O)c(O)c2)oc2cc(O)cc(O)c12 [Compound 12, Quercetin] | > 10000 | – | – |
| O=c1c(O)c(-c2cc(O)c(O)c(O)c2)oc2cc(O)cc(O)c12 [Compound 13, Myricetin] | – | > 10000 | – |
